Measured values: publication PMC8143347, “Metabolism and Interspecies Variation of IMMH-010, a Programmed Cell Death Ligand 1 Inhibitor Prodrug” (Pharmaceutics, 2021)
Each block holds one compound with its values, some of them ahead of it.

Tests used:
[1] = system: B16F10 melanoma; test: Antitumor activity in B16F10 melanoma xenograft model; format: in vivo, mouse; settings: B16F10, CTX 80 mg/kg weekly, day 19
Experimental: (§1) The antitumor activity of IMMH-010 was evaluated by B16F10 melanoma and MC38 colon carcinoma xenograft models. The B16F10 and MC38 cells were resuspended in saline (1.5 × 10^6 cells/0.2 mL saline) and injected subcutaneously into the right flanks of each mouse on day 0. The treated mice received once-daily oral administration of IMMH-010 maleate (1.25, 2.5, 5, and 10 mg/kg, n = 10) by oral gavage (PO) for 19 consecutive days, whereas the control mice received vehicle (0.5% carboxymethyl cellulose, n = 10). The mice in the positive control group received the anti-mouse PD-L1 antibody (696618M2, Bio X Cell, West Lebanon, NH, USA) at 10 mg/kg intraperitoneally every 3 days (n = 10). The first-line antineoplastic drug cyclophosphamide (CTX) was administered at doses of 80 and 40 mg/kg weekly in the B16F10 and MC38 models (n = 10), respectively. After the last treatment, on day 19, the mice were sacrificed, and the tumor and spleen were stripped and weighed. The tumor growth inhibition (TGI) was calculated as TGI = (1 − treatment group tumor weight/vehicle group tumor weight) × 100.

[2] = system: MC38 colon carcinoma; test: Antitumor activity in MC38 colon carcinoma xenograft model; format: in vivo, mouse; settings: MC38, CTX 40 mg/kg weekly, day 19
Experimental: as §1

[3] = Body weight in B16F10 model; settings: B16F10, CTX 80 mg/kg weekly
Experimental: as §1

[4] = Body weight in MC38 model; settings: MC38, CTX 40 mg/kg weekly
Experimental: as §1

[5] = Metabolism in human liver microsomes; format: in vitro ADME; settings: NADPH-dependent
Experimental: (§2) To compare the differences in IMMH-010 metabolism between the liver and intestine, IMMH-010 (10 μM) was incubated with rat liver and intestinal S9 homogenate protein (1 mg protein/mL) and with human liver and intestinal microsomes (0.2 mg protein/mL) in a final volume of 0.2 mL Tris-HCl buffer (50 mM, pH 7.4) containing 5 mM MgCl2. The incubations were performed in duplicate in the presence and absence of an NADPH regenerating system. After 2 min preincubation at 37 °C, reactions were initiated by the addition of IMMH-010 (10 μM). Incubations were terminated by acetonitrile at 0, 10, and 20 min. IMMH-010, YPD-29B, M2, and M3 were quantified by LC-MS/MS assay. Midazolam (10 μM, a substrate of CYP3A4) was set as the positive control.

[6] = Metabolism in human intestinal microsomes; format: in vitro ADME; settings: NADPH-dependent
Experimental: as §2

[7] = system: cDNA-expressed human CYPs and FMOs; test: IMMH-010 metabolism by cDNA-expressed human CYPs and FMOs; format: in vitro ADME; settings: IMMH-010 10 µM, 50 pmol enzyme, 30 min, NADPH
Experimental: cDNA-expressed human CYPs were also used to investigate the enzymes mediating IMMH-010 metabolism. IMMH-010 (10 µM) was incubated individually with 50 pmol of 10 individual cDNA-expressed human CYPs (CYP1A1, CYP1A2, CYP2A6, CYP2B6, CYP2C9, CYP2C19, CYP2D6, CYP2E1, CYP2J2, or CYP3A4) and three cDNA-expressed human FMO enzymes (FMO1, FMO3, and FMO5) at 37 °C for 30 min. An NADPH regeneration system was added to initiate the reactions. Probe substrates of the CYPs were used as the positive controls. Incubations without NADPH served as the negative controls. All reactions were carried out in a final volume of 0.2 mL Tris-HCl buffer (50 mM, pH 7.4) containing 5 mM MgCl2 and conducted in triplicate. All incubations were terminated by 2 volumes of acetonitrile. After centrifugation at 14,000 rpm for 5 min, the samples were analyzed by LC-MS/MS.

[8] = Identification of IMMH-010 metabolites in rat urine, bile and feces; format: in vivo; settings: after oral IMMH-010 maleate 5 mg/kg
Experimental: After oral administration of IMMH-010 maleate (5 mg/kg), two rats were housed in metabolic cages to collect urine and feces samples for 24 h. Feces samples were homogenized with methanol at 1:10 (w/v) and urine samples were diluted 10-fold in methanol. Additionally, two rats were bile duct cannulated under isoflurane anesthesia. After oral administration of IMMH-010 maleate (5 mg/kg), bile samples were collected over 0–2 h after dosing.
LC-MS was performed using a Thermo Scientific Q Exactive HF hybrid quadrupole-Orbitrap mass spectrometer. Reverse-phase liquid chromatography was performed on a Zorbax C18 column (100 × 2.1 mm, 3.5 μm). Mobile phase A was 0.1% aqueous formic acid and mobile phase B was 0.1% formic acid in methanol. The mobile phase was delivered with the following gradient elution profile: 0 min, 10% B; 15 min, 40% B; 17–19 min, 100% B; 20–23 min, 10% B. The total runtime for each injection was 23 min. The flow rate was 0.3 mL/min, and the column oven was maintained at 30 °C.
The analysis was performed in full mass spectrometry with data-dependent tandem mass spectrometry (MS/dd-MS^2) mode. For a full mass spectrometry scan, the selected scan range was from m/z 100 to 500, the resolution was 70,000, and the automatic gain control (AGC) target was set to 1.0 × 10^6 with a maximum injection time (IT) of 100 ms. For the dd-MS^2 scan, the fragmentation mass spectra were recorded at a mass resolving power of 17,500 fwhm with a quadrupole isolation window of 1.5 m/z for precursor ions. The AGC target was 2.0 × 10^5 and the maximum IT was 50 ms.
Xcalibur 4.1 software (Thermo Fisher Scientific, San Jose, CA, USA) was used for instrument control and data processing. Compound Discover 2.0 software was used for metabolite identification.

[9] = Metabolism in human liver S9 fractions; format: in vitro ADME; settings: human, monkey, dog and rat liver S9 incubations of IMMH-010 10 μM
Experimental: IMMH-010 metabolism was compared in human, monkey, dog, and rat liver S9 homogenates. IMMH-010 (10 μM) was incubated with liver S9 homogenate protein (0.5 mg protein/mL) and a reduced nicotinamide adenine dinucleotide phosphate (NADPH) regenerating system in a final volume of 0.2 mL Tris-HCl buffer (50 mM, pH 7.4) containing 5 mM MgCl2. The reactions were performed in triplicate. After 2 min of preincubation at 37 °C, reactions were initiated by the addition of IMMH-010 (10 μM). The samples were collected 0, 5, 10, and 20 min after incubation, 2 volumes of acetonitrile were added to terminate the reaction. After vortexing and centrifugation, IMMH-010, YPD-29B, M3, and M4 in the supernatant were analyzed by LC-MS/MS.
(§3) All statistics were calculated using GraphPad Prism 8.0 software (San Diego, CA, USA) designed for one-way ANOVA. Pharmacokinetic parameters were calculated with a non-compartmental analysis using WinNonlin Version 6.3 (Pharsight, Mountain View, CA, USA). ADMET predictor V10.0 (Simulations Plus, Inc., Lancaster, CA, USA) and Microsoft Excel (Microsoft, Redmond, WA, USA) were used to process the data (i.e., half-life (t1/2) and hepatic clearance (CLhep) determination). Data were expressed as means ± standard deviations (SD). Results were considered statistically significant if the p-value <0.05, <0.01 and <0.001.

[10] = Plasma and tumor PK in B16F10 melanoma xenograft mice; format: in vivo, mouse
Experimental: (§4) After the final dose, tumor and blood samples treated with IMMH-010 maleate (5 mg/kg) were collected over 72 h. Blood was exposed in an EP tube containing 500 mM NaF and 0.5% heparin sodium. Plasma samples were obtained by centrifugation, and tumor tissues were homogenized with 3 volumes (w/v) of saline on ice. The concentration of IMMH-010 and YPD-29B in plasma and tumor samples was quantitated by an LC-MS/MS method.
(§5) LC-MS/MS was performed using a triple quadrupole mass spectrometer (API 4000, AB Sciex, Framingham, MA, USA) with an ultra-performance liquid chromatography system (LC-30A, Shimadzu, Kyoto, Japan). Analyst 1.6.2 software (AB Sciex) was used for data acquisition and analysis. Mobile phase A was 1 mM ammonium acetate and mobile phase B was methanol. The mobile phase was delivered with the following gradient elution profile: 0–2.8 min, 70% B; 2.9 min, 85% B; 3 min, 90% B; 3.1–6.8 min, 100% B; 6.9–12 min, 70% B. The flow rate was 0.3 mL/min, and the column oven was maintained at 35 °C. The specific transitions monitored were 641.3 → 494.2 for IMMH-010, 597 → 155 for YPD-29B, 512 → 247 for M3, and 524 → 246 for M4.
as §3

[11] = Plasma and tumor PK in MC38 colon cancer xenograft mice; format: in vivo, mouse
Experimental: as §4, §5, §3

[12] = PK study in male cynomolgus monkeys; format: in vivo, cynomolgus monkey; settings: single oral IMMH-010 maleate 5 mg/kg
Experimental: IMMH-010 maleate was suspended with 0.5% carboxymethyl cellulose to make a 1 mg/mL suspension for PO gavage. Four male cynomolgus monkeys received a single oral dose of IMMH-010 maleate (5 mg/kg). Serial blood samples were collected upto 48 h. The plasma was separated and the plasma concentrations of IMMH-010 and YPD-29B were determined by LC-MS/MS.
as §5, §3

Structure (SMILES): O=P1(N(CCCl)CCCl)NCCCO1 (stereo not drawn) [CTX, cyclophosphamide, reference compound]
Tumor Weight (g) X ± SD [1]: 0.23 ± 0.18 g
Tumor Weight TGI (%) [1]: 90%
Tumor Weight (g) X ± SD [2]: 0.17 ± 0.10 g
Tumor Weight TGI (%) [2]: 90%
Body Weight (g) X ± SD Finish ([3]; finish day 19): 19.2 ± 0.8 g
Body Weight (g) X ± SD Start ([3]; start): 16.94 ± 0.43 g
Body Weight (g) X ± SD Finish ([4]; finish day 19): 24.5 ± 0.9 g
Body Weight (g) X ± SD Start ([4]; start): 22.0 ± 0.8 g

transformation ratio of IMMH-010 to this metabolite [5]: < 2%
transformation ratio of IMMH-010 to this metabolite [6]: < 2%
enzyme with the highest metabolic activity for formation of the metabolite [7]: CYP2D6
metabolite in rat feces and bile [8]: detected
Structure (SMILES): O=Cc1cc(Cl)c(OCc2cccc(-c3ccccc3)c2Br)cc1OCc1cccnc1 [M2]

amount of minor metabolite formed [9]: < 3%
transformation ratio of IMMH-010 to this metabolite [5]: < 2%
transformation ratio of IMMH-010 to this metabolite [6]: < 2%
enzyme with the highest metabolic activity for formation of the metabolite [7]: CYP2D6
metabolite in rat feces and bile [8]: detected
Structure (SMILES): OCc1cc(Cl)c(OCc2cccc(-c3ccccc3)c2Br)cc1OCc1cccnc1 [M3]

amount of minor metabolite formed [9]: < 3%
formation of the metabolite in CYP and FMO incubations [7]: not detected
metabolite in rat feces and bile [8]: detected
Structure (SMILES): O=C(O)c1cc(Cl)c(OCc2cccc(-c3ccccc3)c2Br)cc1OCc1cccnc1 [M4]

metabolite in rat feces and bile [8]: detected
metabolite in rat urine ([8]; 24 h urine): found
area under the plasma concentration versus time curve (AUC) ([10]; B16F10 mice, IMMH-010 maleate 5 mg/kg PO): ~69.9 ng·h/mL
half-life ([10]; C57BL/6, mouse, plasma, B16F10 mice, IMMH-010 maleate 5 mg/kg PO, read-out: elimination half-life (t1/2β) in plasma (converted)): 1.61 h
Tmax ([10]; C57BL/6, mouse, plasma, B16F10 mice, IMMH-010 maleate 5 mg/kg PO, read-out: mean time of peak plasma concentration (converted)): 0.25 h
Cmax ([10]; C57BL/6, mouse, plasma, B16F10 mice, after last oral dose of IMMH-010 maleate 5 mg/kg for 19 days, read-out: mean peak concentration (Cmax) in plasma): 42.6 ng/mL
Kp ([10]; C57BL/6, mouse, tumor and plasma, B16F10 mice, IMMH-010 maleate 5 mg/kg PO, read-out: tissue/plasma ratio (AUCtumor/AUCplasma)): 2.1
half-life ([10]; C57BL/6, mouse, tumor, B16F10 mice, IMMH-010 maleate 5 mg/kg PO, read-out: t1/2β in tumor (converted)): 12.4 h
Tmax ([10]; C57BL/6, mouse, tumor, B16F10 mice, IMMH-010 maleate 5 mg/kg PO, read-out: time of maximum concentration in the tumor): 0.25 to 1 h
t1/2β in tumors relative to plasma ([10]; range over B16F10 and MC38 xenograft mice): 7.6–25 times
half-life ([11]; C57BL/6, mouse, plasma, IMMH-010 maleate 5 mg/kg PO, read-out: elimination half-life (t1/2β) in plasma (converted)): 1.76 h
Tmax ([11]; C57BL/6, mouse, plasma, IMMH-010 maleate 5 mg/kg PO, read-out: mean time of peak plasma concentration (converted)): 0.25 h
Cmax ([11]; C57BL/6, mouse, plasma, after last oral dose of IMMH-010 maleate 5 mg/kg for 19 days, read-out: mean peak concentration (Cmax) in plasma): 64.4 ng/mL
Kp ([11]; C57BL/6, mouse, tumor and plasma, IMMH-010 maleate 5 mg/kg PO, read-out: tissue/plasma ratio (AUCtumor/AUCplasma)): 2.4
half-life ([11]; C57BL/6, mouse, tumor, IMMH-010 maleate 5 mg/kg PO, read-out: t1/2β in tumor (converted)): 45 h
Tmax ([11]; C57BL/6, mouse, tumor, IMMH-010 maleate 5 mg/kg PO, read-out: time of maximum concentration in the tumor): 0.25 to 1 h
area under the plasma concentration versus time curve (AUC) ([11]; IMMH-010 maleate 5 mg/kg PO): ~69.9 ng·h/mL
AUC ([12]; cynomolgus monkey, plasma): 186 ng·h/mL
Cmax ([12]; cynomolgus monkey, plasma): 35.5 ng/mL
half-life ([12]; cynomolgus monkey, plasma, read-out: mean t1/2β in plasma (converted)): 9 h
Tmax ([12]; cynomolgus monkey, plasma, read-out: observed time to peak concentration): ≤ 1.5 h
molar AUC ratio of YPD-29B to IMMH-010 [12]: 4.17
Structure (SMILES): O=C(O)[C@H](CO)NCc1cc(Cl)c(OCc2cccc(-c3ccccc3)c2Br)cc1OCc1cccnc1 [YPD-29B]
